Test results reported in patent US11246876B2, “Anti-cancer effects of JAK2 inhibitors in combination with thalidomide derivatives and glucocorticoids” (OncoTracker, Inc., priority 2014, dated 2022).

Columns and labels:
LAGκ-1A tumors = experiment: LAGκ-1A human multiple myeloma xenograft in SCID mice; assay type: in vivo; details: ruxolitinib 1.5 mg/kg i.p. twice daily, dexamethasone 1 mg/kg i.p. once daily, lenalidomide 15 mg/kg oral gavage once daily
Protocol: (§1) The combination of the JAK2 inhibitor ruxolitinib with lenalidomide and dexamethasone was tested on human multiple myeloma tumors in vivo. The anti-multiple myeloma effects of ruxolitinib were evaluated with mice bearing either LAGκ-1A (bortezomib- and melphalan-sensitive) or LAGκ-2 (bortezomib- and melphalan-resistant) tumors, both of which were originally derived from bone marrow biopsies from multiple myeloma patients. These tumors closely resemble human multiple myeloma and have been passaged through multiple generations of mice with consistent growth and chemoresistance patterns.
Following intramuscular implantation of LAGκ-1A tumor tissue, mice underwent treatment with vehicle control, ruxolitinib, dexamethasone, lenalidomide, ruxolitinib and dexamethasone, ruxolitinib and lenalidomide, dexamethasone and lenalidomide, or ruxolitinib with lenalidomide and dexamethasone (see FIG. 8A). Ruxolitinib was administered via injection at 1.5 mg/kg i.p., twice daily; dexamethasone was administered at 1 mg/kg i.p., once daily, and lenalidomide was administered via oral gavage at 15 mg/kg, once daily. When ruxolitinib, lenalidomide, or dexamethasone was administered individually, LAGκ-1A tumor growth was not inhibited compared to control.
(§2) Six- to 8-week-old male severe combined immunodeficient (SCID) mice were obtained from the Jackson Laboratory (Bar Harbor, Me., USA) and maintained in a specific pathogen-free area in our animal resources facility. Human myeloma tumors (LAGκ-1A or LAGκ-2) which have been maintained in our laboratory for many years were excised from an anaesthetized tumor containing donor mouse, sectioned into 20-40 mm3 pieces, and surgically implanted into the left superficial gluteal muscle of the anaesthetized naive SCID mice. Recipient mice received weekly injections of anti-asialo GM1 rabbit serum (Wako Bioproducts, Richmond, Va., USA) to further suppress immune activity and allow growth of the human tumor. All animal studies were conducted according to protocols approved by the Institutional Animal Care and Use Committee. […]

LAGκ-2 tumors = experiment: LAGκ-2 human multiple myeloma xenograft in SCID mice; assay type: in vivo; details: dosing as for LAGκ-1A (dexamethasone 1.5 mg/kg for LAGκ-2)
Protocol: as §1
In another experiment, mice received an intramuscular implantation of LAGκ-2 tumor tissue, and then underwent treatment with vehicle control, ruxolitinib, dexamethasone, lenalidomide, ruxolitinib and dexamethasone, ruxolitinib and lenalidomide, dexamethasone and lenalidomide, or ruxolitinib with lenalidomide and dexamethasone, as described above (see FIG. 8B). Similar to the effects on LAGκ-1A tumors, when ruxolitinib, lenalidomide, or dexamethasone was administered individually, LAGκ-2 tumor growth was not inhibited compared to control.
as §2, with “Committee. Animals were anaesthetized with ketamine, xylazine, and isoflurane prior to surgery and were euthanized when tumors reached 2 cm in diameter.” for “Committee.”

## Nc1cccc2c1CN(C1CCC(=O)NC1=O)C2=O (stereo not drawn) [lenalidomide]
LAGκ-1A tumors
  LAGκ-1A tumor growth compared to control: not inhibited
LAGκ-2 tumors
  LAGκ-2 tumor growth compared to control: not inhibited

## N#CC[C@H](C1CCCC1)n1cc(-c2ncnc3[nH]ccc23)cn1 [ruxolitinib]
LAGκ-1A tumors
  LAGκ-1A tumor growth compared to control: not inhibited
LAGκ-2 tumors
  LAGκ-2 tumor growth compared to control: not inhibited

## C[C@@H]1C[C@H]2[C@@H]3CCC4=CC(=O)C=C[C@]4(C)[C@@]3(F)[C@@H](O)C[C@]2(C)[C@@]1(O)C(=O)CO [dexamethasone]
LAGκ-1A tumors
  LAGκ-1A tumor growth compared to control: not inhibited
LAGκ-2 tumors
  LAGκ-2 tumor growth compared to control: not inhibited
